This is an account of results in US7897645B2, “Herpesvirus-derived therapeutic agent for pain” (Taiho Pharmaceutical Co., Ltd., priority 2005, dated 2011).

For test [1], the system named is post herpetic neuralgia. The test is described as follows: Clinical course of zoster-associated pain in patients, in words (case reports). Conditions: for effect on continued pain after herpes zoster: Example 6: person, diclofenac sodium suppository 1 to 2 times per day in addition to morphine hydrochloride 30 mg/day. In kind it is in vivo, human. As to the method:
A person. They were diagnosed as right face herpes zoster. Anti-virus agent was administered by drops for 5 days. Since dull pain remained at the same region thereafter, oral administration of mecobalamin of 1500 μg/day and sodium loxoprofen of 180 mg/day was started after the consultation. After administration for 2 weeks, VAS evaluation of pain dropped to 1 point, and the administration of sodium loxoprofen stopped with administration of mecobalamin maintained. Mecobalamin was further administered, and although VAS evaluations were 1 to 3 points for about 3 months, sense of incongruity and spasmodic sharp pain of neuralgia after herpes zoster continued, and therefore oral administration of a 100 mg capsule of IPD 3 times per day was started in the same manner as in Example 1 with administration of mecobalamin maintained. After 1 week of the administration of suplatast tosylate, the post herpetic neuralgia disappeared, and VAS evaluation became 0 point. […] Then administration was stopped.
A person. Painful rashes appeared from right chest to the back, and they were diagnosed as herpes zoster. Anti-virus agent was administered by dropping for 1 week, but the pain continued. Diclofenac sodium suppository was used by 1 to 2 times per day in addition to administration of morphine hydrochloride 30 mg/day, but both of them were no effect, and further nerve block treatment was also no effect. After 6 months of the consultation (7 points at VAS evaluation), oral administration of a 100 mg capsule of IPD 3 times per day was started in the same manner as in Example 1, the post herpetic neuralgia decreased to 5 points at VAS evaluation by the treatment for 3 weeks, although the administration of morphine was invalid.

Test [2] relates to post herpetic neuralgia. The test is described as follows: Visual Analogue Scale (VAS) evaluation of pain in herpes zoster / post herpetic neuralgia patients (case reports). Conditions: for VAS evaluation of pain: mecobalamin 1500 μg/day and sodium loxoprofen 180 mg/day oral together, after 2 weeks. The test is classed as in vivo, human. As to the method:
The present invention will be described below in more detail with reference to examples and test examples. However, the invention is not limited by these examples. The sharp pain in examples was evaluated by the Visual Analogue Scale evaluation (hereinafter abbreviated to “VAS evaluation”), in which the grade of pain of each patient is expressed by himself or herself on a 100 mm straight line. In VAS evaluation, the highest score is 10 points (100 mm), and the point becomes smaller according to the decrease of the pain. (refer to Anesth Analog 1993, 77, 1041-1047 etc.)

For `O=C(O)Cc1ccccc1Nc1c(Cl)cccc1Cl` [Diclofenac sodium], the “effect on continued pain after herpes zoster” value in the test on post herpetic neuralgia [1] is on record as “no effect”.

Regarding `C/C1=C2/[N-][C@H]([C@H](CC(N)=O)[C@@]2(C)CCC(=O)NC[C@@H](C)OP(=O)([O-])O[C@H]2[C@@H](O)[C@@H](n3cnc4cc(C)c(C)cc43)O[C@@H]2CO)[C@]2(C)N=C(/C(C)=C3N=C(/C=C4N=C1[C@@H](CCC(N)=O)C\4(C)C)[C@@H](CCC(N)=O)[C@]\3(C)CC(N)=O)[C@@H](CCC(N)=O)[C@]2(C)CC(N)=O.[CH3-].[Co+3]` [mecobalamin], the VAS evaluation is recorded as 5 points in the test with post herpetic neuralgia [2] (Example 1: person, mecobalamin 1500 μg/day oral continued, neuralgia not changed for 3 years after consultation); 7 points in the test with post herpetic neuralgia [2] (Example 2: person, mecobalamin 1500 μg/day continued, PHN did not change for 8 months after consultation); 0.5 to 1 point in the test on post herpetic neuralgia [2] (Example 4: person, mecobalamin 1500 μg/day for 1.5 months, 5 points before). Besides, the “VAS evaluation of pain” value with post herpetic neuralgia [2] (Example 3: person) came out at 1 point. This molecule also came in with a VAS evaluations with post herpetic neuralgia [2] (Example 3: person, mecobalamin alone further administered, for about 3 months) of 1 to 3 points.

Take `CN1CC[C@]23c4c5ccc(O)c4O[C@H]2[C@@H](O)C=C[C@H]3[C@H]1C5.Cl` [morphine hydrochloride]: the “effect on continued pain after herpes zoster” value in the test with post herpetic neuralgia [1] was “no effect”.

As to `CC(C(=O)[O-])c1ccc(CC2CCCC2=O)cc1.[Na+]` (stereo not shown) [sodium loxoprofen], in the test on post herpetic neuralgia [2] (Example 3: person), the “VAS evaluation of pain” value turned out to be 1 point.

With `CCOCC(O)COc1ccc(NC(=O)CC[S+](C)C)cc1.Cc1ccc(S(=O)(=O)[O-])cc1` (racemic) [suplatast tosylate, (±)-[2-[4-(3-ethoxy-2-hydroxypropoxy)phenylcarbamoyl]ethyl]dimethylsulfonium p-toluenesulfonate], the “symptoms on continued administration” value in the test with post herpetic neuralgia [1] (Example 3: person, oral suplatast tosylate and mecobalamin continued for further about 1 month) is on record as “no symptom was observed”. In addition, the VAS evaluation is 0 point in the test on post herpetic neuralgia [2] (Example 1: person, PHN, 100 mg capsule of IPD 3 times per day oral, after 3 days, 5 points before); 2 points in the test with post herpetic neuralgia [2] (Example 2: person, PHN, 100 mg capsule of IPD 3 times per day oral, after 1.5 months, 7 points before); 0 point with post herpetic neuralgia [2] (Example 3: person, PHN, 100 mg capsule of IPD 3 times per day oral, mecobalamin maintained, after 1 week, 1 to 3 points before); 0.1 to 0.2 point in the test with post herpetic neuralgia [2] (Example 4: person, PHN, 100 mg capsule of IPD 3 times per day oral, after 1 month, 0.5 to 1 point before); 0.7 point in the test with post herpetic neuralgia [2] (Example 5: person, PHN, 100 mg capsule of IPD 3 times per day oral, by continuation of the administration); 1 point in the test with post herpetic neuralgia [2] (Example 5: person, PHN, 100 mg capsule of IPD 3 times per day oral, first decrease, 5 points before). The molecule also came in with a VAS evaluation in the test on post herpetic neuralgia [2] (Example 6: person, PHN, 100 mg capsule of IPD 3 times per day oral, treatment for 3 weeks, 7 points before) of 5 points.
